Test results: BindingDB's records for patent US20250313563 (The Broad Institute, 2025)
“And” between values parts separate entries of the source, which are not always exact repeats. Equal values may be shown once.

Key:
[1] = target: Glycogen synthase kinase-3 beta (Homo sapiens, UniProt P49841); assay: TR-FRET Assay
Method: (§1) The assay was performed in a white, 384 well, low volume, flat bottom plate (Grenier). […] The kinase activity was quenched with 2 μL of 250 mM EDTA. A 10 μL volume of 40 nM Strepavidin-d2, 2 nM Tb2+-pSer641 antibody in TR-FRET Detection Buffer (Invitrogen) was then added.

[2] = target: Glycogen synthase kinase-3 alpha (Homo sapiens, UniProt P49840); assay: TR-FRET Assay
Method: as §1

Glycogen synthase kinase-3 beta, sequence (P49841 whole entry): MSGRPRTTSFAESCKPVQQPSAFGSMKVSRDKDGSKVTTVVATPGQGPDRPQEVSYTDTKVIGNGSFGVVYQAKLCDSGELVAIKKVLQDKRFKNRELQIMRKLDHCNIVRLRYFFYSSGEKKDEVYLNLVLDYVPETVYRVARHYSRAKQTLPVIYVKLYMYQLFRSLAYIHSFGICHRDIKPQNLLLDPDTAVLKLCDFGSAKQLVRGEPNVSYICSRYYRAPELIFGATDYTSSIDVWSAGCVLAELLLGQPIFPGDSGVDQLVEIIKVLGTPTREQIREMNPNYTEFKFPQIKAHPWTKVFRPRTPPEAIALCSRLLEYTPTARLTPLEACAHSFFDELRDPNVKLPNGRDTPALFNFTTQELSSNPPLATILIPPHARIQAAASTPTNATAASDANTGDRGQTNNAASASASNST
Glycogen synthase kinase-3 alpha, sequence (P49840 whole entry): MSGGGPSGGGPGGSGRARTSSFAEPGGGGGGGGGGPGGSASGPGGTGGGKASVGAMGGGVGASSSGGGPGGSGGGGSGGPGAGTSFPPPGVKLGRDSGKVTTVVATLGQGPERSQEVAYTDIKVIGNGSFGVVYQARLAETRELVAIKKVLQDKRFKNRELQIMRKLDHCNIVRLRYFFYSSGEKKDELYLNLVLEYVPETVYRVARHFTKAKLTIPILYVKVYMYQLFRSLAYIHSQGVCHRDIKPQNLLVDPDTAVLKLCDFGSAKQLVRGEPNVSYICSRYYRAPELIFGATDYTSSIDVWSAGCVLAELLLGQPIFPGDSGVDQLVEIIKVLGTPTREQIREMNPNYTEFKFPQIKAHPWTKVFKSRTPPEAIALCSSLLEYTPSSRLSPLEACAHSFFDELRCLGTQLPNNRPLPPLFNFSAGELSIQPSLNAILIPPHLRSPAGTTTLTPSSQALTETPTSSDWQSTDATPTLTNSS

Question: Which IC50 [1] does the source give for `CC1(C)CC(=O)C2=C(C1)NC1=C(CN=N1)[C@]21CCc2c(F)cccc21` [US20250313563, Compound 806633] here?
Answer: Its IC50 is 0.1 to 1 µM.

Question: And the IC50 [2]?
Answer: Its IC50 is under 0.1 µM.

Question: Which results are given for `CCC1(c2cccc(-c3ccncn3)c2)C2=CN=NC2NC2=C1C(=O)CC(C)(C)C2` (stereo unspecified) [US20250313563, Compound 806637]?
Answer: IC50 [1]: 0.1 to 1 µM; IC50 [2]: < 0.1 µM

Question: Which IC50 [1] does the source give for `CC1(C)CC(=O)C2=C(C1)NC1N=NC(Br)=C1[C@@]21CCc2c(F)cccc21` (stereo partly specified) [US20250313563, Compound 806938] here?
Answer: The IC50 was 1 to 5 µM.

Question: What about the IC50 [2] of the same molecule?
Answer: Its IC50 is 0.1 to 1 µM.

Question: What does the source list for `CC1(C)CC(=O)C2=C(C1)NC1N=NC(Br)=C1[C@]21CCc2c(F)cccc21` (stereo partly specified) [US20250313563, Compound 806939]?
Answer: IC50 [1]: < 0.1 µM; IC50 [2]: < 0.1 µM

Question: Which results are given for `CCC1(c2ccccc2)C2=C(N=NC2)NC(C)=C1C(C)=O` (stereo unspecified) [US20250313563, Compound 806940]?
Answer: IC50 [1]: > 5 µM; IC50 [2]: > 5 µM

Question: For `CC[C@]1(c2cccc(N(C)C(C)=O)c2)C2=CN=NC2NC2=C1C(=O)CC(C)(C)C2` (stereo partly specified) [US20250313563, Compound 810358], which IC50 [1] is on record?
Answer: The IC50 was under 0.1 µM.

Question: What about the IC50 [2] of the same molecule?
Answer: The IC50 was under 0.1 µM.

Question: Which IC50 [1] does the source give for `CC[C@@]1(c2cccc(N(C)C(C)=O)c2)C2=CN=NC2NC2=C1C(=O)CC(C)(C)C2` (stereo partly specified) [US20250313563, Compound 810359] here?
Answer: The IC50 was over 5 µM.

Question: And the IC50 [2]?
Answer: The IC50 was over 5 µM.

Question: For `CC[C@@]1(c2cccc(N3CCOCC3)c2)C2=CN=NC2NC2=C1C(=O)CC(C)(C)C2` (stereo partly specified) [US20250313563, Compound 810363], which IC50 [1] is on record?
Answer: The IC50 was 0.1 to 1 µM.

Question: What about the IC50 [2] of the same molecule?
Answer: Its IC50 is 0.1 to 1 µM.

Question: Which IC50 [1] does the source give for `CC[C@]1(c2cccc(N3CCOCC3)c2)C2=CN=NC2NC2=C1C(=O)CC(C)(C)C2` (stereo partly specified) [US20250313563, Compound 810364] here?
Answer: Its IC50 is over 5 µM.

Question: And the IC50 [2]?
Answer: Its IC50 is over 5 µM.

Question: For `CC[C@]1(c2cccc(Br)c2)C2=C(CC(C)(C)CC2=O)NC2N=NC(C(F)(F)F)=C21` (stereo partly specified) [US20250313563, Compound 810366], which IC50 [1] is on record?
Answer: The IC50 was < 0.1 µM and 0.1 to 1 µM.

Question: And the IC50 [2]?
Answer: The IC50 was under 0.1 µM.

Question: `CC[C@@]1(c2cccc(C(F)(F)F)c2)C2=C(CC(C)(C)CC2=O)NC2N=NC(C)=C21` (stereo partly specified) [US20250313563, Compound 810367] was tested. Which IC50 [1] did it give?
Answer: The IC50 was under 0.1 µM.

Question: And the IC50 [2]?
Answer: The IC50 was under 0.1 µM.

Question: Which IC50 [1] does the source give for `CC[C@]1(c2cccc(C(F)(F)F)c2)C2=C(CC(C)(C)CC2=O)NC2N=NC(C)=C21` (stereo partly specified) [US20250313563, Compound 810368] here?
Answer: The IC50 was over 1.67 µM.

Question: And the IC50 [2]?
Answer: Its IC50 is 0.1 to 1 µM.

Question: `CC[C@@]1(c2cccc(N3CCCCC3)c2)C2=CN=NC2NC2=C1C(=O)CC(C)(C)C2` (stereo partly specified) [US20250313563, Compound 810369] was tested. Which IC50 [1] did it give?
Answer: The IC50 was 0.1 to 1 µM.

Question: And the IC50 [2]?
Answer: The IC50 was under 0.1 µM.

Question: What does the source list for `CC[C@]1(c2cccc(N3CCCCC3)c2)C2=CN=NC2NC2=C1C(=O)CC(C)(C)C2` (stereo partly specified) [US20250313563, Compound 810371]?
Answer: IC50 [1]: > 5 µM; IC50 [2]: > 5 µM

Question: For `CC[C@]1(c2cccc(C(C)C)c2)C2=CN=NC2NC2=C1C(=O)CC(C)(C)C2` (stereo partly specified) [US20250313563, Compound 810373], which IC50 [1] is on record?
Answer: The IC50 was < 0.1 µM and 1 to 5 µM.

Question: And the IC50 [2]?
Answer: Its IC50 is < 0.1 µM and 0.1 to 1 µM.

Question: For `CC[C@@]1(c2cccc(C(C)C)c2)C2=CN=NC2NC2=C1C(=O)CC(C)(C)C2` (stereo partly specified) [US20250313563, Compound 810375], which IC50 [1] is on record?
Answer: The IC50 was over 5 µM.

Question: And the IC50 [2]?
Answer: The IC50 was 1 to 5 µM.

Question: Which IC50 [1] does the source give for `CC1(C)CC(=O)C2=C(C1)NC1=C(CN=N1)C2(C)c1cc(C(F)(F)F)ccc1F` (stereo unspecified) [US20250313563, Compound 810376] here?
Answer: The IC50 was 0.1 to 1 µM.

Question: What about the IC50 [2] of the same molecule?
Answer: Its IC50 is under 0.1 µM.

Question: Which IC50 [1] does the source give for `CC1(C)CC(=O)C2=C(C1)NC1=C(CN=N1)C2(C)c1cc(Cl)ccc1F` (stereo unspecified) [US20250313563, Compound 810377] here?
Answer: Its IC50 is 1 to 5 µM.

Question: What about the IC50 [2] of the same molecule?
Answer: The IC50 was 0.1 to 1 µM.

Question: Which results are given for `CCC1(c2cccc(N3CCN(C)CC3)c2)C2=CN=NC2NC2=C1C(=O)CC(C)(C)C2` (stereo unspecified) [US20250313563, Compound 810379]?
Answer: IC50 [1]: > 5 µM; IC50 [2]: > 1.67 µM

Question: Which results are given for `CC[C@]1(c2cccc(C(F)(F)F)c2)C2=CN=NC2NC2=C1C(=O)C[C@H](C)C2` (stereo partly specified) [US20250313563, Compound 810450]?
Answer: IC50 [1]: < 0.1 µM and 1 to 5 µM; IC50 [2]: < 0.1 µM and 0.1 to 1 µM

Question: Which IC50 [1] does the source give for `CC[C@@]1(c2cccc(C(F)(F)F)c2)C2=CN=NC2NC2=C1C(=O)C[C@H](C)C2` (stereo partly specified) [US20250313563, Compound 810452] here?
Answer: Its IC50 is 1 to 5 µM.

Question: What about the IC50 [2] of the same molecule?
Answer: The IC50 was 0.1 to 1 µM.

Question: With `CC1(C)CC(=O)C2=C(C1)NC1=NN=C(Br)C1C21CCNc2ccccc21` (stereo unspecified) [US20250313563, Compound 810460] as the molecule, how does the IC50 [1] read?
Answer: The IC50 was over 5 µM.

Question: What about the IC50 [2] of the same molecule?
Answer: The IC50 was 1 to 5 µM.

Question: What does the source list for `CC[C@@]1(c2cccc(C(F)(F)F)c2)C2=C(CC(C)(C)CC2=O)NC2N=NC(Br)=C21` (stereo partly specified) [US20250313563, Compound 810464]?
Answer: IC50 [1]: 1 to 5 µM; IC50 [2]: 1 to 5 µM

Question: How did the IC50 [1] turn out when `CC[C@]1(c2cccc(Br)c2)C2=CN=NC2NC2=C1C(=O)C[C@@H](C)C2` (stereo partly specified) [US20250313563, Compound 810484] was run?
Answer: The IC50 was over 5 µM.

Question: What about the IC50 [2] of the same molecule?
Answer: Its IC50 is over 5 µM.

Question: Which results are given for `CC[C@@]1(c2cccc(Br)c2)C2=CN=NC2NC2=C1C(=O)C[C@@H](C)C2` (stereo partly specified) [US20250313563, Compound 810485]?
Answer: IC50 [1]: > 5 µM; IC50 [2]: > 5 µM

Question: For `CC[C@]1(c2cccc(Br)c2)C2=CN=NC2NC2=C1C(=O)C[C@H](C)C2` (stereo partly specified) [US20250313563, Compound 810486], which IC50 [1] is on record?
Answer: The IC50 was 0.1 to 1 µM.

Question: What about the IC50 [2] of the same molecule?
Answer: Its IC50 is under 0.1 µM.

Question: Which results are given for `CC[C@@]1(c2cccc(Br)c2)C2=CN=NC2NC2=C1C(=O)C[C@H](C)C2` (stereo partly specified) [US20250313563, Compound 810487]?
Answer: IC50 [1]: 0.1 to 1 µM; IC50 [2]: < 0.1 µM

Question: Which results are given for `CC[C@]1(c2cccc(-c3ccncn3)c2)C2=CN=NC2NC2=C1C(=O)CC(C)(C)C2` (stereo partly specified) [US20250313563, Compound 810488]?
Answer: IC50 [1]: 0.1 to 1 µM; IC50 [2]: < 0.1 µM
